US11667961B2, “Intercalating fluorescent dyes for labelling nucleic acids and preparation method thereof” (Bioacts Corporation, priority 2020, dated 2023)
“Also recorded” adds a separate entry of the source.

Legend:
[1] = tested on: double-stranded DNA (cDNA extracted from HeLa cells, b-actin primer); assay: Compound analysis through real-time PCR by intercalating method (double-stranded DNA binding dyes); type: biochemical; conditions: for fluorescence signal / fluorescence intensity during DNA synthesis (FIG. 1): 1 uL of 200 uM dye in 20 uL reaction, fluorescence wavelength of 497 nm detected; for Cq value (FIG. 3): 45 cycles, HeLa cDNA template
Protocol: Compounds 8, 9, 10, 15, 16, and 17 were dissolved in dimethyl sulfoxide to prepare 5 mM of a stock solution. The prepared stock solution was diluted in a Tris-EDTA buffer (pH 7.5) and prepared at a concentration of 200 uM.
For Reference material 1, 10,000× of the stock solution was diluted to a concentration of 20× through a Tris-EDTA buffer (pH 7.5). For Reference material 2, 20,000× of the stock solution was diluted to a concentration of 20× through a Tris-EDTA buffer (pH 7.5).
Reference materials 1 (Evagreen) and 2 (Invitrogen Sybr Green) and Compounds 8, 9, 10, 15, 16, and 17 were compared and verified by an intercalating method using a double-stranded DNA binding dyes through real-time PCR. cDNA extracted from HeLa cells was used, and b-actin (Forward 5′-CATCGAGCACGGCATCGTCA-3′, Reverse 5′-TAGCACAGCCTGGATAGCAAC-3′) was used as a primer. Real-time PCR reaction was performed using a CFX96 touch real-time PCR detection system (BIO-RAD). The PCR mixture consisted of a total 20 uL of reaction solution containing 1 uL of a forward primer, 1 uL of a reverse primer, 10 uL of a PCR master mix (TAKARA), 1 uL of a reference material and each compound (Compounds 8, 9, 10, 15, 16, 17), and 1 uL of template cDNA. PCR conditions were as follows: (a) In a pre-denaturing step, 1 minute at 95° C. (b) 45 cycles are configured as a cycle consisting of at 95° C. for 15 seconds, 58° C. for 30 seconds and 72° C. for 30 seconds, and a fluorescence wavelength of 497 nm was detected in a cycle of 30 seconds at 72° C.

[2] = Stability analysis: storage in incubator at 60° C. for 3 days, then real-time PCR fluorescence; type: physicochemical; conditions: for change in fluorescence intensity after reaction at 60° C. for 3 days (FIGS. 11-14): stored in incubator at 60° C. for 3 days, real-time PCR for each template concentration
Protocol: Stability analysis was performed by storing Reference materials 1 (Evagreen) and 2 (Invitrogen Sybr Green) and Compound 16 in an incubator at 60° C. The three materials were stored in an incubator at 60° C. for 3 days, and the fluorescence signals for each template concentration were analyzed by real-time PCR analysis as in (1) above, and the PCR product was electrophoresed to analyze whether normal DNA synthesis was achieved. After real-time-PCR, synthetic DNA and a 6× Loading dye (BioActs) were mixed, and then electrophoresis was performed for 35 minutes on a 2% agarose gel (Simga-aldrich).

C=CS(=O)(=O)CCNC(=O)CCCN(C)C1=C/C(=C\c2sc3ccccc3[n+]2C)c2ccccc2N1c1ccccc1 [Compound 15]
fluorescence signal / fluorescence intensity during DNA synthesis (FIG. 1) [1]: emit visible fluorescence; also recorded: not much strong

CCCCCCCCNC(=O)CCCN(C)C1=C/C(=C\c2oc3ccccc3[n+]2C)c2ccccc2N1c1ccccc1 [Compound 10]
fluorescence signal / fluorescence intensity during DNA synthesis (FIG. 1) [1]: not strongly observed
Cq value (FIG. 3) [1]: not much confirmed

CCCCCCCCNC(=O)CCCN(C)C1=C/C(=C\c2oc3ccccc3[n+]2C)c2ccccc2N1c1ccccc1 [Compound 17]
fluorescence signal / fluorescence intensity during DNA synthesis (FIG. 1) [1]: emit visible fluorescence; also recorded: not much strong
Cq value (FIG. 3) [1]: hardly confirmed

C=CS(=O)(=O)CCNC(=O)CCCN(C)C1=C/C(=C\c2oc3ccccc3[n+]2C)c2ccccc2N1c1ccccc1 [Compound 8]
fluorescence signal / fluorescence intensity during DNA synthesis (FIG. 1) [1]: not strongly observed
Cq value (FIG. 3) [1]: not much confirmed

CCCN(CCCN(C)C)c1cc(/C=C2/Sc3ccccc3N2C)c2ccccc2[n+]1-c1ccccc1 [Reference material 2, reference compound]
change in fluorescence intensity after reaction at 60° C. for 3 days (FIGS. 11-14) [2]: decreased by about half

CN(C)CCCNC(=O)CCCN(C)C1=C/C(=C\c2oc3ccccc3[n+]2C)c2ccccc2N1c1ccccc1 [Compound 9]
fluorescence signal / fluorescence intensity during DNA synthesis (FIG. 1) [1]: not strongly observed
Cq value (FIG. 3) [1]: not much confirmed

CN(C)CCCNC(=O)CCCN(C)C1=C/C(=C\c2sc3ccccc3[n+]2C)c2ccccc2N1c1ccccc1 [Compound 16]
fluorescence signal / fluorescence intensity during DNA synthesis (FIG. 1) [1]: emit visible fluorescence; also recorded: very strong
Cq value (FIG. 3) [1]: fastest
Cq value relative to Reference material 1 (FIG. 6) ([1]; compared with Evagreen): faster than that of Reference material 1
fluorescence intensity relative to Reference materials 1 and 2 (FIG. 4) ([1]; compared with Evagreen and Sybr Green at 20×): two times higher
stability compared with Reference material 2 ([2]; 60° C. for 3 days): more stable material than Reference material 2
change in fluorescence intensity after reaction at 60° C. for 3 days (FIGS. 11-14) [2]: no significant change
